Reference: PubChem BioAssay AID1919007 (Molecular Pharmacology Branch, DTP, NCI, 2023)

Test system: A498 complex spheroids with HUVEC/MSC, growth
Assay: Anticancer human tumor A498 cell line growth inhibition [AhR];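 further: seven day exposure starting three days after spheroid seeding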;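 on viability, T/C: luminescence signal used as a surrogate for viable cells; luminescence viability scaled so 100% equals DMSO vehicle wells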
Conditions: for IC50: curve of first compound; for viability, T/C: stronger effect = lower value
Method in brief: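 Spheroids combined tumor cells with HUVEC endothelial cells and human MSCs as stroma. AhR antagonists were paired with standard or investigational drugs, each dosed in half-log steps down from near clinical Cmax, or from 10 microM where Cmax was unknown.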

[1] = second compound 0.1 µM, first compound 0.0316 µM
[2] = second compound 0.1 µM, first compound 0.1 µM
[3] = second compound 0.1 µM, first compound 0.316 µM
[4] = second compound 0.1 µM, first compound 1 µM
[5] = second compound 0.1 µM, first compound 3.16 µM
[6] = second compound 0.1 µM, first compound 10 µM
[7] = second compound 0.316 µM, first compound 0.0316 µM
[8] = second compound 0.316 µM, first compound 0.1 µM
[9] = second compound 0.316 µM, first compound 0.316 µM
[10] = second compound 0.316 µM, first compound 1 µM
[11] = second compound 0.316 µM, first compound 3.16 µM
[12] = second compound 0.316 µM, first compound 10 µM
[13] = second compound 1 µM, first compound 0.0316 µM
[14] = second compound 1 µM, first compound 0.1 µM
[15] = second compound 1 µM, first compound 0.316 µM
[16] = second compound 1 µM, first compound 1 µM
[17] = second compound 1 µM, first compound 3.16 µM
[18] = second compound 1 µM, first compound 10 µM
[19] = second compound 3.16 µM, first compound 0.0316 µM
[20] = second compound 3.16 µM, first compound 0.1 µM
[21] = second compound 3.16 µM, first compound 0.316 µM
[22] = second compound 3.16 µM, first compound 1 µM
[23] = second compound 3.16 µM, first compound 3.16 µM
[24] = second compound 3.16 µM, first compound 10 µM
[25] = second compound 10 µM, first compound 0.0316 µM
[26] = second compound 10 µM, first compound 0.1 µM
[27] = second compound 10 µM, first compound 0.316 µM
[28] = second compound 10 µM, first compound 1 µM
[29] = second compound 10 µM, first compound 3.16 µM
[30] = second compound 10 µM, first compound 10 µM

SMILES	IC50 (second compound 0.1 µM) [nM]	IC50 (second compound 0.316 µM) [nM]	IC50 (second compound 1 µM) [nM]	IC50 (second compound 3.16 µM) [nM]	IC50 (second compound 10 µM) [nM]	viability, T/C [1] [%]	viability, T/C [2] [%]	viability, T/C [3] [%]	viability, T/C [4] [%]	viability, T/C [7] [%]	viability, T/C [8] [%]	viability, T/C [9] [%]	viability, T/C [10] [%]	viability, T/C [13] [%]	viability, T/C [14] [%]	viability, T/C [15] [%]	viability, T/C [16] [%]	viability, T/C [19] [%]	viability, T/C [20] [%]	viability, T/C [21] [%]	further results
CC(C)c1c(-c2ccccc2)nc2c(C#N)c[nH]n2c1=O + Cc1cncc(-c2nc(NCCc3c[nH]c4ccccc34)c3ncn(C(C)C)c3n2)c1	> 10000	> 10000	> 10000	> 10000	< 31.6	89.4	92.7	98.5	104	103	104	95.6	91	92.6	95.8	95.2	88.8	50.7	49.1	52.8	viability, T/C [5]: 100%; viability, T/C [6]: 94.8%; viability, T/C [11]: 96.9%; viability, T/C [12]: 98.5%; viability, T/C [17]: 91.6%; viability, T/C [18]: 91.2%; viability, T/C [22]: 54.9%; viability, T/C [23]: 49.2%; viability, T/C [24]: 52.7%; viability, T/C [25]: 3%; viability, T/C [26]: 4.01%; viability, T/C [27]: 4.28%; viability, T/C [28]: 3.84%; viability, T/C [29]: 3.64%; viability, T/C [30]: 4.87%
CC1COCCN1c1cc(-c2ccnn2C)c2ccnc(-c3ccn[nH]3)c2n1 (stereo not given) + Cc1cncc(-c2nc(NCCc3c[nH]c4ccccc34)c3ncn(C(C)C)c3n2)c1	111	129	105	24.4	< 3.16	90.6	52.5	24.5	19.4	89	57.4	26	20.5	81.5	52.2	23.5	21.4	51.4	41.2	22.8	viability, T/C (second compound 0.1 µM, first compound 0.00316 µM): 94.3%; viability, T/C (second compound 0.1 µM, first compound 0.01 µM): 102%; viability, T/C (second compound 0.316 µM, first compound 0.00316 µM): 98.5%; viability, T/C (second compound 0.316 µM, first compound 0.01 µM): 103%; viability, T/C (second compound 1 µM, first compound 0.00316 µM): 91.3%; viability, T/C (second compound 1 µM, first compound 0.01 µM): 96.8%; viability, T/C (second compound 3.16 µM, first compound 0.00316 µM): 49.4%; viability, T/C (second compound 3.16 µM, first compound 0.01 µM): 50.1%; viability, T/C [22]: 19.5%; viability, T/C (second compound 10 µM, first compound 0.00316 µM): 3.71%; viability, T/C (second compound 10 µM, first compound 0.01 µM): 4.4%; viability, T/C [25]: 6.04%; viability, T/C [26]: 3.64%; viability, T/C [27]: 4.9%; viability, T/C [28]: 10.9%
COc1ccc([C@@H](O)c2cc(-c3ncnc4cc(N5CCOCC5)ccc34)c(F)cc2Cl)nn1 + Cc1cncc(-c2nc(NCCc3c[nH]c4ccccc34)c3ncn(C(C)C)c3n2)c1	477	549	434	< 31.6	< 31.6	89.2	86.9	59	30.6	89.5	85.9	67	31.1	80.6	85.1	57.5	26.6	45.1	49.3	39.3	viability, T/C [5]: 19.1%; viability, T/C [6]: 10.1%; viability, T/C [11]: 17.7%; viability, T/C [12]: 11.8%; viability, T/C [17]: 17.5%; viability, T/C [18]: 12.4%; viability, T/C [22]: 25%; viability, T/C [23]: 15.4%; viability, T/C [24]: 11.6%; viability, T/C [25]: 3.91%; viability, T/C [26]: 4.22%; viability, T/C [27]: 4.26%; viability, T/C [28]: 3.54%; viability, T/C [29]: 3.86%; viability, T/C [30]: 8.65%
